Patent US6458862B1, “Foaming agents” (priority 1998, dated 2002)

What was measured:
rat [1] = assay: Acute toxicity in the oral rat, LD50; format: in vivo
rat [2] = assay: Acute toxicity in the rat by inhalation, LD50; format: in vivo; conditions: 4 hours
Inflammability in air = format: physicochemical; conditions: marked § flammable

| Structure (SMILES) | Acute toxicity in the oral rat, LD50 (rat [1]) | Acute toxicity in the rat by inhalation, LD50 (rat [2]) | Inflammability in air, % volume (Inflammability in air) |
| --- | --- | --- | --- |
| FC(F)OC(F)(F)C(F)(F)OC(F)F [HCF2OCF2CF2OCF2H, 1-difluoromethoxy-1,1,2,2-tetrafluoroethyl difluoromethyl ether] | >5000 ppmv/4 hours | >32000 ppmv/4 hours |  |
| FC(Cl)(Cl)Cl [CFC 11, trichloro-fluoromethane] | >1000 ppmv/4 hours | 26200 ppmv/4 hours |  |
| CC(F)(Cl)Cl [HCFC 141b, 1,1-dichloro-1-fluoroethane] | >5000 ppmv/4 hours | 62000 ppmv/4 hours | 7.6-17.7§ % volume |
| FC(F)OC(F)(F)OC(F)F [HCF2OCF2OCF2H, difluoromethoxy-bis(difluoromethyl ether)] | >5000 ppmv/4 hours | >32000 ppmv/4 hours |  |
